Laboratory results published in patent US5747521A (priority 1992, dated 1998).
Where two headings read alike, the source gives them in different places.

What was measured:
[1] = test system: number of stretchings (anti-writhing); assay: Analgesic activity test (anti-writhing method by Whittle); assay type: in vivo, male ICR-mice; conditions: for ED50: Mus musculus, 1 h, read-out: ED50 Oral administration; for analgesic activity / analgesic action: conclusion in words from Table 3
Experimental: After the lapse of 60 minutes, the number of stretchings in the course of 10 minutes was measured as an index to a algesic sense.

[2] = test system: carrageenan induced hind-paw edema; assay: Anti-inflammatory activity test (carrageenan induced hind-paw edema method, Winter); assay type: in vivo, male rats; conditions: for A rate of inhibition: 100 mg/kg p.o., 1% carrageenan one hour after dosing, edema measured 3 hours and 5 hours thereafter, significance (p.v.) 0.01; for edema inhibition effect / anti-inflammatory action: conclusion in words from Table 2
Experimental: The volume of legs was measured before a solution of a drug was administered to a group of 8 mature male rats (weight 170±20 g) and 0.1 ml /rat of 1% carrageenan physiological saline solution was injected subcutaneously into the sole of hind of leg of rats one hour after the oral administration and edema thereby caused was measured 3 hours and 5 hours thereafter. In this way, a rate of edema formation and a rate of inhibition were calculated.

in vivo [3] = assay: in vivo; set-up: species or system male SD-rats; conditions: rat, po
Experimental: A solution of a drug was administered through the mouths of a group of 8 mature male SD-rats (weight 130±20 g) performing a fast for 24 hours. […] Capacity which causes 50% bleeding (UD50) was calculated according to the Ritchfield and Wilcoxon method (J. Pahrmacol., 69, 99, 1949) with bleeding more than 1 mm in diameter as positivity.

in vivo [4] = conditions: mouse
[5] = oral, stretchings counted in 10 minutes, 60 minutes after dosing
[6] = ip, read-out: LD50 Abdominal administration
[7] = oral, single dose, fasted mice, mortality up to 72 hours, read-out: LD50 Oral administration

SMILES | ED50 ([1]; po) | A rate of inhibition [2] | TD50 at 4 h (in vivo [3]) | ED50 [1, 5] | analgesic activity / analgesic action [1] | LD50 at 72 h (in vivo [4]; [6]) | LD50 at 72 h (in vivo [4]; [7]) | edema inhibition effect / anti-inflammatory action [2] | LD50 at 72 h (in vivo [4]; ip, into the abdominal cavity, single dose, fasted mice, mortality up to 72 hours, read-out: LD50 Abdominal administration)
COc1ccc2c(c1)c(CC(=O)O)c(C)n2C(=O)C=Cc1ccccc1 [Cinmetacin, N-cinnamoyl-2-methyl-5-methoxy-3-indoleacetic acid, reference compound] | 36 mg/kg | 65% | 18 mg/kg | – | – | – | – | – | –
COc1ccc2c(c1)c(CC(=O)OCC=CCO)c(C)n2C(=O)C=Cc1ccccc1 [Compound 1, 0-(4-hydroxy-2-butene)-N-cinnamoyl-5-methoxy-2-methyl-3-indoleacetate] | – | 57% | 100 mg/kg | 70 mg/kg | significant analgesic action | 520 mg/kg | 2000 mg/kg | almost similar to the widely known cinmetacin | –
COc1ccc2c(c1)c(CC(=O)OC(C)C(C)O)c(C)n2C(=O)C=Cc1ccccc1 (stereo not shown) [Compound 2, 0-(3-hydroxy-2-buthanyl)-cinnamoyl-5-methoxy-2-methyl-3-indoleacetate] | – | 52% | 175 mg/kg | 31 mg/kg | analgesic activity equal to cinmetacin | 570 mg/kg | 4200 mg/kg | almost similar to the widely known cinmetacin | –
COc1ccc2c(c1)c(CC(=O)OCC1CCCCO1)c(C)n2C(=O)C=Cc1ccccc1 (stereo not shown) [Compound 3, 0-(2-tetrahydropyranilmethyl)-N-cinnamoyl-5-methoxy-2methyl-3-indoleacetate] | – | 43% | 230 mg/kg | 95 mg/kg | significant analgesic action | 1150 mg/kg | 6000 mg/kg | significant anti-inflammatory action | –
CC1=C(CC(=O)O)c2cc(F)ccc2/C1=C\c1ccc([S+](C)[O-])cc1 (stereo not shown) [Sulindac, reference compound] | 60 mg/kg | – | 14 mg/kg | – | – | – | 980 mg/kg | – | 235 mg/kg
